Among the data in patent US6875760B2 (Novo Nordisk A/S, priority 1999, dated 2005) are IC50 values, retold here.

One may read the IC50 as the concentration needed to halve the response being measured.

Where two headings read alike, the source gives them in different places.

The assay deals with T1, human glucagon receptor (Homo sapiens, UniProt P47871).
T1 construct: expressed in transfected cells; host or cells: BHK (baby hamster kidney) cells
Description: Glucagon Binding Assay (III). To be noted: BHK cell membranes, WGA SPA beads, 125I-glucagon. The protocol: BHK (baby hamster kidney cell line) cells were transfected with the human glucagon receptor and a membrane preparation of the cells was prepared.
All steps in the membrane preparation were kept on ice or performed at 4° C. BHK cells were harvested and centrifuged. […] The pellet was resuspended in homogenisation buffer, homogenised 2×10 sec (Polytron) and additional homogenisation buffer was added. […] (Polytron).
The glucagon binding assay was carried out in opti plates (Polystyrene Microplates, Packard). […] Finally 50 μL WGA beads containing 1 mg beads were transferred to the well. The assay was incubated for 4 hours on a shaker and then settled for 8-48 hours. The opti plates were counted in a Topcounter. Non-specific binding was determined with 500 nM of glucagon.

The mark [1] stands for this setting: read-out: Glu Bd Assay (III) IC50.

T1 sequence (P47871 26-477): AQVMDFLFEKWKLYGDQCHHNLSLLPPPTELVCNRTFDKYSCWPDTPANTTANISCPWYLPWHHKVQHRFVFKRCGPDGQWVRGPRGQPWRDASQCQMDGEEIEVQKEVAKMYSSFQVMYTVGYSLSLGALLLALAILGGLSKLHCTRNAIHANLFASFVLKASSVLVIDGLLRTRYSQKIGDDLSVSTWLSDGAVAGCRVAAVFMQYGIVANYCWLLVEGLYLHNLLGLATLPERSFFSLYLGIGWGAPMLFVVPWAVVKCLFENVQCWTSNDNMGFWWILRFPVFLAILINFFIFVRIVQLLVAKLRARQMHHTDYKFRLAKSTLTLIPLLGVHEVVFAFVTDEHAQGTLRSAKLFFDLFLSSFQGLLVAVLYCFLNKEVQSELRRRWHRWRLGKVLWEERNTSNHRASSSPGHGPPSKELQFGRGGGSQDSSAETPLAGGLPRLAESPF

Under “Glu Bd Assay (III) IC50 (nM)”, `CC(C)(C)[C@H]1CC[C@H](N(Cc2ccc(C(=O)N3CCCC(C(=O)O)C3)cc2)C(=O)Nc2ccc(OC(F)(F)F)cc2)CC1` (relative stereo) [Example 94, 1-{4-[1-(trans-4-tert-Butylcyclohexyl)-3-(4-trifluoromethoxyphenyl)ureidomethyl]benzoyl}piperidine-3-carboxylic acid] yielded an IC50 of 1000 nM.
For `CC(NC(=O)N(Cc1ccc(C(=O)Nc2nn[nH]n2)cc1)c1ccc(C2CCCCC2)cc1)c1ccc(Cl)cc1` (single isomer, unassigned) [Example 337, 4-[3-[1-(4-Chlorophenyl)ethyl]-1-(4-Cyclohexylphenyl)ureidomethyl]-N-(2H-tetrazol-5-yl)benzamide], the half-inhibitory concentration (IC50) under setting [1] was 22 nM.
Take `CC(NC(=O)N(Cc1ccc(C(=O)Nc2nn[nH]n2)cc1)c1ccc(C2CCCCC2)cc1)c1ccc(Cl)cc1` (single isomer, unassigned) [Example 338, 4-[3-[1-(4-Chlorophenyl)ethyl]-1-(4-cyclohexylphenyl)ureidomethyl]-N-(2H-tetrazol-5-yl)benzamide]: the IC50 under setting [1] was determined as 169 nM.
As to `CCCCC(CC)CN(Cc1ccc(C(=O)NCCC(=O)O)cc1)C(=O)Nc1ccc(Oc2ccccc2)cc1` (centres unmarked) [Example 14, 3-{4-[1-(2-Ethylhexyl)-3-(4-phenoxyphenyl)ureidomethyl]benzoylamino}propionic acid], the half-maximal inhibitory concentration (IC50) under setting [1] is 184 nM.
On to `CC1CCC(N(Cc2ccc(C(=O)NCCC(=O)O)cc2)C(=O)Nc2ccc(OC(F)(F)F)cc2)CC1` (centres unmarked) [Example 15, 3-{4-[1-(4-Methylcyclohexyl)-3-(4-trifluoromethoxyphenyl)ureidomethyl]benzoylamino}propionic acid], for which the 50% inhibitory concentration (IC50) under setting [1] is 826 nM.
Regarding `CC(C)(C)C1CCC(N(Cc2ccc(C(=O)NCCC(=O)O)cc2)C(=O)Nc2ccc(Cl)c(Cl)c2)CC1` (centres unmarked) [Example 16, 3-{4-[1-(4-tert-Butylcyclohexyl)-3-(3,4-dichlorophenyl)ureidomethyl]benzoylamino}propionic acid], the half-inhibitory concentration (IC50) under setting [1] is 39 nM.
For the compound `CC(C)(C)C1CCC(N(Cc2ccc(C(=O)NCCC(=O)O)cc2)C(=O)Nc2ccc(Oc3ccccc3)cc2)CC1` (centres unmarked) [Example 17, 3-{4-[1-(4-tert-Butylcyclohexyl)-3-(4-phenoxyphenyl)ureidomethyl]benzoylamino}propionic acid], the IC50 under setting [1] was 27 nM.
On to `O=C(O)CCNC(=O)c1ccc(CN(CCC(c2ccccc2)c2ccccc2)C(=O)Nc2ccc(OC(F)(F)F)cc2)cc1` [Example 18, 3-{4-[1-(3,3-Diphenylpropyl)-3-(4-trifluoromethoxyphenyl)ureidomethyl]benzoylamino}propionic acid], for which the IC50 under setting [1] was found to be 126 nM.
Consider `O=C(O)CCNC(=O)c1ccc(CN(CCc2ccc(Cl)c(Cl)c2)C(=O)Nc2ccc(OC(F)(F)F)cc2)cc1` [Example 19, 3-{4-[1-[2-(3,4-Dichlorophenyl)ethyl]-3-(4-trifluoromethoxyphenyl)ureidomethyl]benzoylamino}propionic acid], for which the 50% inhibitory concentration (IC50) under setting [1] was determined as 201 nM.
As to `CCCCC(CC)CN(Cc1ccc(C(=O)NCCC(=O)O)cc1)C(=O)Nc1cccc(C#N)c1` (centres unmarked) [Example 20, 3-{4-[3-(3-Cyanophenyl)-1-(2-ethylhexyl)ureidomethyl]benzoylamino}propionic acid], the IC50 under setting [1] was 2370 nM.
Turning to `CCCCC(CC)CN(Cc1ccc(C(=O)NCCC(=O)O)cc1)C(=O)Nc1cccc(C(F)(F)F)c1` (centres unmarked) [Example 21, 3-{4-[1-(2-Ethylhexyl)-3-(3-trifluoromethylphenyl)ureidomethyl]benzoylamino}propionic acid], the concentration for half-maximal inhibition (IC50) under setting [1] is 1500 nM.
For the compound `CC1CCC(N(Cc2ccc(C(=O)NCCC(=O)O)cc2)C(=O)Nc2ccc(Oc3ccccc3)cc2)CC1` (centres unmarked) [Example 22, 3-{4-[1-(4-Methylcyclohexyl)-3-(4-phenoxyphenyl)ureidomethyl]benzoylamino}propionic acid], under setting [1], the IC50 came to 1100 nM.
The same measure, in the same setting: as for `CC(C)(C)C1CCC(N(Cc2ccc(C(=O)NCCC(=O)O)cc2)C(=O)NCCc2cccs2)CC1` (centres unmarked) [Example 23, 3-{4-[1-(4-tert-Butylcyclohexyl)-3-(2-thiophen-2-ylethyl)ureidomethyl]benzoylamino}propionic acid], the figure is 1800 nM; as for `COc1cc(OC)c(NC(=O)N(Cc2ccc(C(=O)NCCC(=O)O)cc2)C2CCC(C(C)(C)C)CC2)cc1Cl` (centres unmarked) [Example 24, 3-{4-[1-(4-tert-Butylcyclohexyl)-3-(5-chloro-2,4-dimethoxyphenyl)ureidomethyl]benzoylamino}propionic acid], 1700 nM; as for `CC(C)(C)C1CCC(N(Cc2ccc(C(=O)NCCC(=O)O)cc2)C(=O)Nc2ccccc2C(F)(F)F)CC1` (centres unmarked) [Example 25, 3-{4-[1-(4-tert-Butylcyclohexyl)-3-(2-trifluoromethylphenyl)ureidomethyl]benzoylamino}propionic acid], 935 nM.
Consider `CSc1cccc(NC(=O)N(Cc2ccc(C(=O)NCCC(=O)O)cc2)C2CCC(C(C)(C)C)CC2)c1` (centres unmarked) [Example 26, 3-{4-[1-(4-tert-Butylcyclohexyl)-3-(3-methylsulfanylphenyl)ureidomethyl]benzoylamino}propionic acid], for which, under setting [1], the concentration for half-maximal inhibition (IC50) came to 385 nM.
For `CC(C)(C)C1CCC(N(Cc2ccc(C(=O)NCCC(=O)O)cc2)C(=O)NCCc2ccccc2)CC1` (centres unmarked) [Example 27, 3-{4-[1-(4-tert-Butylcyclohexyl)-3-phenethylureidomethyl]benzoylamino}propionic acid], the IC50 under setting [1] was 2000 nM.
Regarding `CC(C)(C)C1CCC(N(Cc2ccc(C(=O)NCCC(=O)O)cc2)C(=O)Nc2ccccc2-c2ccccc2)CC1` (centres unmarked) [Example 28, 3-{4-[3-Biphenyl-2-yl-1-(4-tert-butylcyclohexyl)ureidomethyl]benzoylamino}propionic acid], the half-inhibitory concentration (IC50) under setting [1] came out at 266 nM.
For `CC(C)c1ccc(NC(=O)N(Cc2ccc(C(=O)NCCC(=O)O)cc2)C2CCC(C(C)(C)C)CC2)cc1` (centres unmarked) [Example 29, 3-{4-[1-(4-tert-Butylcyclohexyl)-3-(4-isopropylphenyl)ureidomethyl]benzoyl}aminopropionic acid], the IC50 under setting [1] worked out at 149 nM.
In the case of `CSc1ccc(NC(=O)N(Cc2ccc(C(=O)NCCC(=O)O)cc2)C2CCC(C(C)(C)C)CC2)cc1` (centres unmarked) [Example 30, 3-{4-[1-(4-tert-Butylcyclohexyl)-3-(4-methylsulfanylphenyl)ureidomethyl]benzoyl}aminopropionic acid], the half-maximal inhibitory concentration (IC50) under setting [1] was 139 nM.
With `COc1ccc(NC(=O)N(Cc2ccc(C(=O)NCCC(=O)O)cc2)C2CCC(C(C)(C)C)CC2)cc1` (centres unmarked) [Example 31, 3-{4-[1-(4-tert-Butylcyclohexyl)-3-(4-methoxyphenyl)ureidomethyl]benzoyl}aminopropionic acid], the IC50 under setting [1] is 2200 nM.
`CC(=O)c1ccc(NC(=O)N(Cc2ccc(C(=O)NCCC(=O)O)cc2)C2CCC(C(C)(C)C)CC2)cc1` (centres unmarked) [Example 32, 3-{4-[1-(4-tert-Butylcyclohexyl)-3-(4-acetylphenyl)ureidomethyl]benzoyl}aminopropionic acid]: under setting [1], the IC50 was 1680 nM.
In the case of `CCCCOC(=O)c1ccc(NC(=O)N(Cc2ccc(C(=O)NCCC(=O)O)cc2)C2CCC(C(C)(C)C)CC2)cc1` (centres unmarked) [Example 33, 4-{3-(4-tert-Butylcyclohexyl)-3-[4-(2-carboxyethylcarbamoyl)benzyl]ureido}benzoic acid butyl ester], under setting [1], the IC50 was 104 nM.
For `CC(C)(C)C1CCC(N(Cc2ccc(C(=O)NCCC(=O)O)cc2)C(=O)Nc2ccc(Cl)cc2)CC1` (centres unmarked) [Example 34, 3-{4-[1-(4-tert-Butylcyclohexyl)-3-(4-chlorophenyl)ureidomethyl]benzoyl}aminopropionic acid], the half-maximal inhibitory concentration (IC50) under setting [1] worked out at 462 nM.
Take `CC(C)(C)[C@H]1CC[C@H](N(Cc2ccc(C(=O)NCCC(=O)O)cc2)C(=O)Nc2ccc(Cl)cc2Cl)CC1` [Example 35, 3-{4-[1-(4-trans-tert-Butylcyclohexyl)-3-(2,4-dichlorophenyl)ureidomethyl]benzoylamino}propionic acid]: the half-inhibitory concentration (IC50) under setting [1] is 352 nM.
Consider `CCCCC(CC)CN(Cc1ccc(C(=O)NCCC(=O)O)cc1)C(=O)Nc1ccc(C(F)(F)F)cc1` (centres unmarked) [Example 36, 3-{4-[1-(2-Ethylhexyl)-3-(4-trifluoromethylphenyl)ureidomethyl]benzoylamino}propionic acid], for which the half-maximal inhibitory concentration (IC50) under setting [1] came to 151 nM.
On to `CCCCOC(=O)c1ccc(NC(=O)N(Cc2ccc(C(=O)NCCC(=O)O)cc2)CC(CC)CCCC)cc1` (centres unmarked) [Example 37, 4-[3-[4-(2-Carboxyethylcarbamoyl)benzyl]-3-(2-ethylhexyl)ureido]benzoic acid butyl ester], for which, under setting [1], the IC50 is 145 nM.
Take `CCCCC(CC)CN(Cc1ccc(C(=O)NCCC(=O)O)cc1)C(=O)Nc1ccc(Cl)cc1` (centres unmarked) [Example 38, 3-{4-[3-(4-Chlorophenyl)-1-(2-ethylhexyl)ureidomethyl]benzoylamino}propionic acid]: under setting [1], the half-inhibitory concentration (IC50) is 928 nM.
As to `CCCCC(CC)CN(Cc1ccc(C(=O)NCCC(=O)O)cc1)C(=O)Nc1ccc(C)cc1` (centres unmarked) [Example 39, 3-{4-[1-(2-Ethylhexyl)-3-p-tolylureidomethyl]benzoylamino}propionic acid], under setting [1], the IC50 was found to be 227 nM.
Turning to `CCCCC(CC)CN(Cc1ccc(C(=O)NCCC(=O)O)cc1)C(=O)Nc1cccc(C(=O)OCC)c1` (centres unmarked) [Example 40, 3-[3-[4-(2-Carboxyethylcarbamoyl)benzyl]-3-(2-ethylhexyl)ureido]benzoic acid ethyl ester], the half-maximal inhibitory concentration (IC50) under setting [1] was 821 nM.
Still for that read-out and setting: as for `CCCCC(CC)CN(Cc1ccc(C(=O)NCCC(=O)O)cc1)C(=O)Nc1ccc(SC)cc1` (centres unmarked) [Example 41, 3-{4-[1-(2-Ethylhexyl)-3-(4-methylsulfanylphenyl)ureidomethyl]benzoylamino}propionic acid], the figure is 299 nM; as for `CCCCC(CC)CN(Cc1ccc(C(=O)NCCC(=O)O)cc1)C(=O)Nc1ccc(CC)cc1` (centres unmarked) [Example 42, 3-{4-[1-(2-Ethylhexyl)-3-(4-ethylphenyl)ureidomethyl]benzoylamino}propionic acid], 117 nM.
